According to patent US20240325398A1, “COMBINATION THERAPIES” (Infinity Pharmaceuticals, Inc., priority 2014, published 2024):

Legend:
[1] = test system: OCI-Ly7; assay: Combination study, ATPLite 72 h, dose matrix (Synergy Score, CI50); settings: combination with Compound 1, 72 h
[2] = as above; settings: combination with Compound 1; OPM-2
Method: (§1) Cells are thawed from a liquid nitrogen preserved state. Once cells have been expanded and divide at their expected doubling times, screening begins. Cells are seeded in growth media in either black 1536-well or 384-well tissue culture treated plates. Cells are then equilibrated in assay plates via centrifugation and placed in incubators attached to the Dosing Modules at 37° C. for 24 hours before treatment. […] These Tzero (To) plates are read using ultra-sensitive luminescence on Envision plate readers (Perkin Elmer). Treated assay plates are incubated with compound for 72 hours. After 72 hours, plates are developed for endpoint analysis using ATPLite. All data points are collected via automated processes, quality controlled and analyzed using Zalicus software.
(§2) where T is treated cell count and V is untreated (vehicle) cell count (at 72 hours). I ranges from 0% (when T=V) to 100% (when T=0). […] The measure of effect in the experiment can be the inhibition of cellular response relative to the untreated level (vehicle alone). […] The inhibition ranges from 0% at the untreated level to 100% when T=0. Inhibition levels are negative for agents that actually increase levels. Other effect measures, such as an activity ratio r=T/V may be more appropriate for some assays. When activity ratios (e.g, fold increase over stimulated control) are being used, the effect can be measured using an induction 1=ln(T/V). With this definition, all effect expressions are the same as for inhibition.
(§3) Growth Inhibition (GI) is used as a measure of cell viability. […] A GI reading of 100% represents complete growth inhibition—T72 compound-treated and T0 vehicle signals are matched. […] A GI reading of 200% represents complete death of all cells in the culture well. Compounds reaching an activity plateau of GI 200% are considered cytotoxic. GI is calculated by applying the following test and equation:
(§4) Combination analysis data were collected in a 6×6 dose matrix. Synergy is calculated by comparing a combination's response to those of its single compound, against the drug-with-itself dose-additive reference model. Deviations from dose additivity may be assessed visually on an isobologram or numerically with a Combination Index (CI). […] Additive effect is CI=1.0. […] Antagonistic effect is CI>1.0.
(§5) To measure combination effects in excess of Loewe additivity, a scalar measure to characterize the strength of synergistic interaction termed the Synergy Score is devised. The Synergy Score is calculated as:
(§6) The fractional inhibition for each component agent and combination point in the matrix is calculated relative to the median of all vehicle-treated control wells. The Synergy Score equation integrates the experimentally-observed activity volume at each point in the matrix in excess of a model surface numerically derived from the activity of the component agents using the Loewe model for additivity. Additional terms in the Synergy Score equation (above) are used to normalize for various dilution factors used for individual agents and to allow for comparison of synergy scores across an entire experiment. The inclusion of positive inhibition gating or an Idata multiplier removes noise near the zero effect level, and biases results for synergistic interactions at that occur at high activity levels.
(§7) Loewe Volume (Loewe Vol) is used to assess the overall magnitude of the combination interaction in excess of the Loewe additivity model. Loewe Volume is particularly useful when distinguishing synergistic increases in a phenotypic activity (positive Loewe Volume) versus synergistic antagonisms (negative Loewe Volume). […] This model defines additivity as a non-synergistic combination interaction where the combination dose matrix surface should be indistinguishable from either drug crossed with itself.

[3] = test system: OMP-2; assay: as above; settings: combination with Compound 1; OPM-2
Method: as §1, §2, §3, §4, §5, §6, §7

[4] = test system: Mino; assay: as above; settings: combination with Compound 1
Method: as §1, §2, §3, §4, §5, §6, §7

[5] = test system: NCI-H929; assay: as above; settings: combination with Compound 1
[6] = test system: KARPAS-299; assay: as above; settings: combination with Compound 1
[7] = test system: OCI-Ly3; assay: as above; settings: combination with Compound 1; OCI-Ly3; 72 h
Method: as §1, §2, §3, §4, §5, §6
(§8) Loewe Volume (Loewe Vol) is used to assess the overall magnitude of the combination interaction in excess of the Loewe additivity model. Loewe Volume is particularly useful when distinguishing synergistic increases in a phenotypic activity (positive Loewe Volume) versus synergistic antagonisms (negative Loewe Volume). […] This model defines additivity as a non-synergistic combination interaction where the combination dose matrix surface should be indistinguishable from either drug crossed with itself. The calculation for Loewe additivity is:

[8] = test system: TMD8; assay: as above; settings: combination with Compound 1; TMD8; 72 h
[9] = test system: HH; assay: as above; type: cell-based; settings: combination with Compound 1
Method: The method is described as follows.
Additive effect is CI=1.0. […] Antagonistic effect is CI>1.0.
The Synergy Score is calculated as: […]

[10] = test system: U-2932; assay: as above; settings: combination with Compound 1, 72 h
Method: as §1, §2, §3, §4, §5, §6, §8

[11] = test system: SU-DHL-10-epst; assay: as above; settings: combination with Compound 1, 72 h
[12] = test system: GRANTA-519; assay: as above; settings: combination with Compound 1
[13] = test system: Farage; assay: as above; settings: combination with Compound 1; Farage; 72 h
[14] = test system: WSU-NHL; assay: as above; settings: combination with Compound 1, 72 h
[15] = test system: RL; assay: as above; settings: combination with Compound 1, 72 h
[16] = test system: KARPAS-422; assay: as above; settings: combination with Compound 1, 72 h
[17] = test system: HBL-1; assay: as above; settings: combination with Compound 1, 72 h
Method: as §1, §2, §3, §4, §5, §6, §8

[18] = test system: DOHH-2; assay: as above; settings: combination with Compound 1, 72 h
Method: as §1
The measure of effect in the experiment can be the inhibition of cellular response relative to the untreated level (vehicle alone). […] The inhibition ranges from 0% at the untreated level to 100% when T=0. Inhibition levels are negative for agents that actually increase levels.
as §3, §4, §5, §6, §8

[19] = test system: SU-DHL-4-epst; assay: as above; settings: combination with Compound 1, 72 h
[20] = test system: Jeko-1; assay: as above; settings: combination with Compound 1
[21] = test system: RPMI-8226; assay: as above; settings: combination with Compound 1
Method: as §1, §2, §3, §4, §5, §6, §7

SMILES: CCCCCCCCCCCCCCCCCCOP(=O)([O-])OC1CC[N+](C)(C)CC1 [perifosine, 1,1-dimethylpiperidinium-4-yl octadecyl phosphate]
- CI50 growth inhibition [1]: U (U=0.7 to <1)
- CI50 inhibition [1]: W (W=≥1)
- Synergy Score growth inhibition [1]: A2 (A2=1 to <3)
- Synergy Score inhibition [1]: A1 (A1=0.0001 to <1)
- CI50 growth inhibition [2]: U (U=0.7 to <1)
- CI50 inhibition [3]: W (W=≥1)
- Synergy Score growth inhibition [3]: A2 (A2=1 to <3)
- Synergy Score inhibition [3]: A1 (A1=0.0001 to <1)
- CI50 growth inhibition [4]: U (U=0.7 to <1)
- CI50 inhibition [4]: W (W=≥1)
- Synergy Score growth inhibition [4]: A2 (A2=1 to <3)
- Synergy Score inhibition [4]: A1 (A1=0.0001 to <1)
- CI50 growth inhibition [5]: U (U=0.7 to <1)
- CI50 inhibition [5]: W (W=≥1)
- Synergy Score growth inhibition [5]: A2 (A2=1 to <3)
- Synergy Score inhibition [5]: A1 (A1=0.0001 to <1)
- CI50 growth inhibition [6]: W (W=≥1)
- CI50 inhibition [6]: W (W=≥1)
- Synergy Score growth inhibition [6]: A1 (A1=0.0001 to <1)
- Synergy Score inhibition [6]: A1 (A1=0.0001 to <1)
- CI50 growth inhibition [7]: W (W=≥1)
- CI50 inhibition [7]: W (W=≥1)
- Synergy Score growth inhibition [7]: A1 (A1=0.0001 to <1)
- Synergy Score inhibition [7]: A1 (A1=0.0001 to <1)
- CI50 growth inhibition [8]: T (T=0.5 to <0.7)
- CI50 inhibition [8]: T (T=0.5 to <0.7)
- Synergy Score growth inhibition [8]: A2 (A2=1 to <3)
- Synergy Score inhibition [8]: A2 (A2=1 to <3)
- CI50 growth inhibition [9]: W (W=≥1)
- CI50 inhibition [9]: S (S=0.01 to <0.5)
- Synergy Score growth inhibition [9]: A3 (A3=>3)
- Synergy Score inhibition [9]: A2 (A2=1 to <3)
- CI50 growth inhibition [10]: W (W=≥1)
- CI50 inhibition [10]: W (W=≥1)
- Synergy Score growth inhibition [10]: A1 (A1=0.0001 to <1)
- Synergy Score inhibition [10]: A1 (A1=0.0001 to <1)
- CI50 growth inhibition [11]: T (T=0.5 to <0.7)
- CI50 inhibition [11]: U (U=0.7 to <1)
- Synergy Score growth inhibition [11]: A2 (A2=1 to <3)
- Synergy Score inhibition [11]: A2 (A2=1 to <3)
- CI50 growth inhibition [12]: S (S=0.01 to <0.5)
- CI50 inhibition [12]: W (W=≥1)
- Synergy Score growth inhibition [12]: A2 (A2=1 to <3)
- Synergy Score inhibition [12]: A1 (A1=0.0001 to <1)
- CI50 growth inhibition [13]: S (S=0.01 to <0.5)
- CI50 inhibition [13]: T (T=0.5 to <0.7)
- Synergy Score growth inhibition [13]: A3 (A3=>3)
- Synergy Score inhibition [13]: A2 (A2=1 to <3)
- CI50 growth inhibition [14]: U (U=0.7 to <1)
- CI50 inhibition [14]: T (T=0.5 to <0.7)
- Synergy Score growth inhibition [14]: A3 (A3=>3)
- Synergy Score inhibition [14]: A2 (A2=1 to <3)
- CI50 growth inhibition [15]: W (W=≥1)
- CI50 inhibition [15]: W (W=≥1)
- Synergy Score growth inhibition [15]: A1 (A1=0.0001 to <1)
- Synergy Score inhibition [15]: A1 (A1=0.0001 to <1)
- CI50 growth inhibition [16]: W (W=≥1)
- CI50 inhibition [16]: U (U=0.7 to <1)
- Synergy Score growth inhibition [16]: A1 (A1=0.0001 to <1)
- Synergy Score inhibition [16]: A1 (A1=0.0001 to <1)
- CI50 growth inhibition [17]: U (U=0.7 to <1)
- CI50 inhibition [17]: W (W=≥1)
- Synergy Score growth inhibition [17]: A3 (A3=>3)
- Synergy Score inhibition [17]: A1 (A1=0.0001 to <1)
- CI50 growth inhibition [18]: T (T=0.5 to <0.7)
- CI50 inhibition [18]: U (U=0.7 to <1)
- Synergy Score growth inhibition [18]: A3 (A3=>3)
- Synergy Score inhibition [18]: A2 (A2=1 to <3)
- CI50 growth inhibition [19]: S (S=0.01 to <0.5)
- CI50 inhibition [19]: U (U=0.7 to <1)
- Synergy Score growth inhibition [19]: A2 (A2=1 to <3)
- Synergy Score inhibition [19]: A1 (A1=0.0001 to <1)
- CI50 growth inhibition [20]: U (U=0.7 to <1)
- CI50 inhibition [20]: W (W=≥1)
- Synergy Score growth inhibition [20]: A1 (A1=0.0001 to <1)
- Synergy Score inhibition [20]: A1 (A1=0.0001 to <1)
- CI50 growth inhibition [21]: T (T=0.5 to <0.7)
- CI50 inhibition [21]: U (U=0.7 to <1)
- Synergy Score growth inhibition [21]: A3 (A3=>3)
- Synergy Score inhibition [21]: A1 (A1=0.0001 to <1)
